What was measured:
[1] = test system: Aphis gossypii; assay: Aphis gossypii test (cotton leaves dipped into the preparation of active compound); assay type: in vivo; settings: leaf dip
Excerpt: (§1) The expected activity for a given combination of two active compounds can be calculated according to S. R. Colby, Weeds 15 (1967), 20-22 as follows:
(§2) If • X is the kill rate, expressed in % of the untreated control, when active compound A is applied at an application rate of m g/ha or at a concentration of m ppm, • Y is the kill rate, expressed in % of the untreated control, when active compound B is applied at an application rate of n g/ha or at a concentration of n ppm and • E is the kill rate, expressed in % of the untreated control, when active compounds A and B is applied at application rates of m and n g/ha or at a concentration of m and n ppm, then
(§3) If the actual kill rate is greater than calculated, the kill of the combination is superadditive, i.e. there is a synergistic effect. In this case, the actual observed kill rate has to be greater than the value for the expected kill rate (E) calculated from the formula given above.
(§4) To produce a suitable preparation of active compound, 1 part by weight of active compound is mixed with the stated amounts of solvent and emulsifier, and the concentrate is diluted with emulsifier-containing water to the desired concentration.
Cotton leaves (Gossypium hirsutum) which are heavily infested by the cotton aphid (Aphis gossypii) are treated by being dipped into the preparation of active compound of the desired concentration.
(§5) After the desired period of time, the kill in % is determined. 100% means that all aphids have been killed; 0% means that none of the aphids have been killed. The kill rates determined are entered into the Colby formula (see sheet 1).

[2] = test system: Myzus persicae; assay: Myzus persicae test (cabbage leaves dipped into the preparation of active compound); assay type: in vivo; settings: leaf dip
Excerpt: as §1, §2, §3, §4
Cabbage leaves (Brassica oleracea) which are heavily infested by the green peach aphid (Myzus persicae) are treated by being dipped into the preparation of active compound of the desired concentration.
as §5

CC(C)N1C(=O)N(c2ccccc2)CS/C1=N\C(C)(C)C [buprofezin]
Kill in % after 1 d ([1]; 100 ppm): 5% | Kill in % after 1 d ([2]; 100 ppm): 0%

CN(Cc1ccc(Cl)nc1)C1=CC(=O)OC1 [compound (Ia)]
Kill in % after 1 d ([1]; 0.16 ppm): 20% | Kill in % after 1 d ([1]; 0.8 ppm): 55% | Kill in % after 1 d ([2]; 0.16 ppm): 10% | Kill in % after 6 d ([2]; 0.16 ppm): 0% | Kill in % after 1 d ([2]; 0.8 ppm): 45% | Kill in % after 6 d ([2]; 0.8 ppm): 50%

O=C1C=C(N(Cc2ccc(Cl)nc2)C2CC2)CO1 [compound (Ib)]
Kill in % after 6 d ([1]; 0.16 ppm): 0% | Kill in % after 1 d ([1]; 0.8 ppm): 45% | Kill in % after 6 d ([1]; 0.8 ppm): 50% | Kill in % after 1 d ([1]; 4 ppm): 80% | Kill in % after 6 d ([2]; 0.16 ppm): 0% | Kill in % after 1 d ([2]; 0.8 ppm): 10% | Kill in % after 1 d ([2]; 4 ppm): 70% | Kill in % after 6 d ([2]; 4 ppm): 33%

CC[S+]([O-])c1c(C#N)nn(-c2c(Cl)cc(C(F)(F)F)cc2Cl)c1N (centres unmarked) [ethiprole]
Kill in % after 6 d ([1]; 0.8 ppm): 30%

N#Cc1nn(-c2c(Cl)cc(C(F)(F)F)cc2Cl)c(N)c1[S+]([O-])C(F)(F)F (centres unmarked) [fipronil]
Kill in % after 6 d ([1]; 20 ppm): 70% | Kill in % after 6 d ([2]; 4 ppm): 0%

Cc1cc(C(F)(C(F)(F)F)C(F)(F)F)ccc1NC(=O)c1cccc(I)c1C(=O)NC(C)(C)CS(C)(=O)=O [flubendiamid, flubendiamide]
Kill in % after 6 d ([2]; 100 ppm): 6%

COC(=O)N(C(=O)N1COC2(C(=O)OC)Cc3cc(Cl)ccc3C2=N1)c1ccc(OC(F)(F)F)cc1 (centres unmarked) [indoxacarb]
Kill in % after 1 d ([1]; 100 ppm): 0% | Kill in % after 6 d ([2]; 100 ppm): 20%

COc1cccc(C(=O)NN(C(=O)c2cc(C)cc(C)c2)C(C)(C)C)c1C [methoxyfenozide]
Kill in % after 1 d ([1]; 100 ppm): 0% | Kill in % after 1 d ([2]; 100 ppm): 0%

FC(F)(F)c1ccc(OCCCOc2c(Cl)cc(OCC=C(Cl)Cl)cc2Cl)nc1 [pyridalyl]
Kill in % after 1 d ([1]; 100 ppm): 5% | Kill in % after 6 d ([2]; 100 ppm): 0%

CNC(=O)c1cc(Cl)cc(C)c1NC(=O)c1cc(Br)nn1-c1ncccc1Cl [rynaxapyr, 3-bromo-N-{4-chloro-2-methyl-6-[(methylamino)carbonyl]phenyl}-1-(3-chloropyridin-2-yl)-1H-pyrazole-5-carboxamide]
Kill in % after 6 d ([1]; 0.8 ppm): 15% | Kill in % after 1 d ([2]; 4 ppm): 30%

abamectin
Kill in % after 1 d ([2]; 100 ppm): 55%

emamectin benzoate
Kill in % after 1 d ([1]; 20 ppm): 10%

spinosad
Kill in % after 1 d ([2]; 100 ppm): 5% | Kill in % after 6 d ([2]; 100 ppm): 5%

From patent US20100298137A1, “ACTIVE INGREDIENT COMBINATIONS WITH INSECTICIDAL PROPERTIES” (BAYER CROPSCIENCE AG, priority 2006, published 2010)
